Target: T1, human OX2R (Homo sapiens, UniProt O43614)
T1 construct: expressed in transfected cells; host or cells: Chinese hamster ovary (CHO) cells, kept under G418 selection
T1 sequence (O43614 1-444): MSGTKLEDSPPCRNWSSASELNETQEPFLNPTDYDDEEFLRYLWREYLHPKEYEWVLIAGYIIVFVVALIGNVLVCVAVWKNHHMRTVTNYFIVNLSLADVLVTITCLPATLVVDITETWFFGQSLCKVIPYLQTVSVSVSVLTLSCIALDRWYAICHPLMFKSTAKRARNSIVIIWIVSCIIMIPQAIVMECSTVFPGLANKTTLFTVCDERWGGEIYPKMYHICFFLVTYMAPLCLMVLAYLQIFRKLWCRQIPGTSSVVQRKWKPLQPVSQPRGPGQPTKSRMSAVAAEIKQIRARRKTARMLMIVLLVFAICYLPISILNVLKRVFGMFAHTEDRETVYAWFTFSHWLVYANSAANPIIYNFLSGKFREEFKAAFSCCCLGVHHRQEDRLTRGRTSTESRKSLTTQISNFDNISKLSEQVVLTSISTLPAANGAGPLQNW
Assay: IPOne (IP-1 accumulation) assay of orexin receptor agonist activity in CHO cells expressing human OX2R
Type: cell-based
Settings: for IC50: CHO cells expressing human OX2R, IP-One assay, 2 hours incubation, four parameter logistic fit, read-out: hOX2R_IP IC50; for Emax: CHO, percent activity at maximum tested concentration, relative to reference compound at 1 uM (100% activity) for human OX2R
From the text: The utility of the compounds in accordance with the present invention as orexin receptor OX1R and/or OX2R agonists may be readily determined without undue experimentation by methodology well known in the art. Both the OX1R and/or OX2R G-coupled protein receptors (GPCRs) couple through the Gαq signaling pathway, which ultimately promotes calcium mobilization via inositol triphosphate (IP3) production. […] The utility of the compounds in accordance with the present invention as orexin receptor OX1R and/or OX2R agonists may be determined utilizing this assay.
In a typical experiment, the OX1 and OX2 receptor agonist activity is determined in accordance with the following general experimental method. Chinese hamster ovary (CHO) cells expressing human OX1R and/or the human OX2R were grown in Iscove's modified DMEM containing glutaMAX™, 1% G418, 100 U/mL penicillin, 100 μg/mL streptomycin and 10% heat-inactivated qualified fetal bovine serum (FBS). […] During this incubation, IP-one detection reagents were prepared (38:1:1 lysis buffer:D2:AB-cryptate reagents).
For each compound, data were fit to a four parameter logistic fit (ActivityBase software) and the EC50 was reported as the inflection point of the resulting curve. Percent effect for each test compound was determined as the percentage of sample raw value/mean max effect, where the mean max effect was derived from the mean raw value of 32 control wells per assay plate (using Orexin A (cat #003-30) at 1 μM for human OX1R and a reference compound at 1 uM with 100% activity previously established by comparison to Orexin A for human OX2R). The intrinsic orexin receptor agonist activity of a compound which may be used in the present invention may be determined by these assays.

Row | SMILES | IC50 | Emax
1 | CC(C)C(=O)N1[C@@H](C)CN(S(=O)(=O)c2ccccc2)C[C@H]1C(=O)NCc1ccc(OC(C)(F)F)cc1 (single isomer, unassigned) [Example 19-4-2] | 9100 nM | 95.6%
2 | Cc1cc(-c2ccco2)ccc1CNC(=O)[C@H]1CN(S(=O)(=O)c2ccccc2)C[C@@H](C)N1C(=O)C(C)C (relative stereo) [Example 29, cis-N-(4-(furan-2-yl)-2-methylbenzyl)-1-isobutyryl-6-methyl-4-(phenylsulfonyl)piperazine-2-carboxamide] | 13.1 nM | 99.6%
3 | CCCc1ccc(CNC(=O)[C@H]2CN(S(=O)(=O)c3ccccc3)C[C@@H](C)N2C(=O)C(C)C)cc1 (relative stereo) [Example 19-10, cis-1-isobutyryl-6-methyl-4-(phenylsulfonyl)-N-(4-propylbenzyl)piperazine-2-carboxamide] | 158 nM | 93.8%
4 | O=C(NCc1ccc2ccccc2c1)C1CN(S(=O)(=O)c2ccccc2)CCN1C(=O)c1cncs1 (stereo not shown) [Example 10-10, N-(naphthalen-2-ylmethyl)-4-(phenylsulfonyl)-1-(thiazole-5-carbonyl)piperazine-2-carboxamide] | 11700 nM | 93.9%
5 | CC(C)C(=O)N1[C@H](C)CN(S(=O)(=O)c2ccccc2)C[C@@H]1C(=O)NCc1ccc(-c2nccs2)cc1 (relative stereo) [Example 19-6, cis-1-isobutyryl-6-methyl-4-(phenylsulfonyl)-N-(4-(thiazol-2-yl)benzyl)piperazine-2-carboxamide] | 81.3 nM | 98.7%

Other lines, results leading:

Row | IC50 | Emax | SMILES
6 | 5510 nM | 89.6% | O=C(NCc1ccc2ccccc2c1)C1CN(S(=O)(=O)c2ccc(F)cc2)CCN1C(=O)c1cccs1 (stereo not shown) [Example 89-9, 4-[(4-fluorophenyl)sulfonyl]-N-[(naphthalen-2-yl)methyl]-1-(thiophene-2-carbonyl)piperazine-2-carboxamide]
7 | 5300 nM | 83.6% | O=C(NCc1ccc2ccccc2c1)C1CN(S(=O)(=O)c2cccc(F)c2)CCN1C(=O)c1cccs1 (stereo not shown) [Example 89-10, 4-[(3-fluorophenyl)sulfonyl]-N-[(naphthalen-2-yl)methyl]-1-(thiophene-2-carbonyl)piperazine-2-carboxamide]
8 | 2670 nM | 92% | Cc1cccc(S(=O)(=O)N2CCN(C(=O)c3cccs3)C(C(=O)NCc3ccc4ccccc4c3)C2)c1 (stereo not shown) [Example 89-2, 4-[(3-methylphenyl)sulfonyl]-N-[(naphthalen-2-yl)methyl]-1-(thiophene-2-carbonyl)piperazine-2-carboxamide]
9 | 29.5 nM | 99.7% | CC(C)C(=O)N1[C@H](C)CN(S(=O)(=O)c2ccccc2)C[C@@H]1C(=O)NCc1cc(F)c(-c2ccco2)c(F)c1 (relative stereo) [Example 47-3, cis-N-(3,5-difluoro-4-(furan-2-yl)benzyl)-1-isobutyryl-6-methyl-4-(phenylsulfonyl)piperazine-2-carboxamide]
10 | 2980 nM | 93.5% | Cc1cc(-c2ccco2)cnc1CNC(=O)[C@H]1CN(S(=O)(=O)c2ccccc2)C[C@@H](C)N1C(=O)C(C)C (relative stereo) [Example 55, cis-N-((5-(furan-2-yl)-3-methylpyridin-2-yl)methyl)-1-isobutyryl-6-methyl-4-(phenylsulfonyl)piperazine-2-carboxamide]
11 | 504 nM | 99.7% | CC(C)C(=O)N1[C@H](C)CN(S(=O)(=O)c2ccccc2)C[C@@H]1C(=O)NCc1cnc(-c2ccco2)cn1 (single isomer, unassigned) [Example 35, cis-N-((5-(furan-2-yl)pyrazin-2-yl)methyl)-1-isobutyryl-6-methyl-4-(phenylsulfonyl)piperazine-2-carboxamide]
